Assay results taken from patent publication US10124065B2, “Lipids and lipid compositions for the delivery of active agents” (Novartis AG, priority 2013, dated 2018).
Where “and” joins values, the source holds several entries; their conditions need not be identical. Identical values can stand only once. Like-named read-outs stand apart in the source and are kept apart here.

Experiments:
[1] = pKa measurement of cationic lipid (TNS fluorescence); type: physicochemical; details: pKa of the cationic lipid of formula (I), Table 4
Description: Unless indicated otherwise, all pKa's referred to herein were measured at standard temperature and pressure. Also, unless otherwise indicated, all references to pKa are references to pKa measured using the following technique. 2 mM solution of lipid in ethanol was prepared by weighing the lipid and then dissolving it in ethanol. 0.3 mM solution of fluorescent probe TNS in ethanol:methanol 9:1 was prepared by first making 3 mM solution of TNS in methanol and then diluting to 0.3 mM with ethanol. An aqueous buffer containing 200 mM sodium phosphate dibasic and 100 mM citric acid was prepared. […] Using the Hamilton Microlab Star high throughput liquid handler and Hamilton run control software Software, 7.5 uL of probe/lipid mix were added to 242.5 uL of buffer in a 1 mL 96 well plate (model NUNC 260252, […] Nunc International). This was done with all twelve buffers. After mixing in 1 mL 96 well plate, 100 uL of each probe/lipid/buffer mixture was transferred to a 250 uL black with clear bottom 96 well plate (model COSTAR 3904, Corning). The fluorescence measurements are carried out on the SpectraMax M5 spectrophotometer using software SoftMax pro 5.2 and following parameters: After the measurement, the background fluorescence value of an empty well on the 96 well plate was subtracted from each probe/lipid/buffer mixture. The fluorescence intensity values were then normalized to the value at lowest pH. The normalized fluorescence intensity vs. pH chart was then plotted in the Microsoft Excel software. The twelve points were connected with a smooth line. The point on the line at which the normalized fluorescence intensity was equal to 0.5 was found. […] The pKa determined using this method is precise to about 0.1 pKa units.

[2] = Particle size of lipid nanoparticle (dynamic light scattering, Malvern Zetasizer); type: physicochemical
Excerpt: The lipid nanoparticles have a size of about 1 to about 2,500 nm, about 1 to about 1,500 nm, about 1 to about 1,000 nm, in a sub-embodiment about 50 to about 600 nm, in a sub-embodiment about 50 to about 400 nm, in a sub-embodiment about 50 to about 250 nm, and in a sub-embodiment about 50 to about 150 nm. Unless indicated otherwise, all sizes referred to herein are the average sizes (diameters) of the fully formed nanoparticle, as measured by dynamic light scattering on a Malvern Zetasizer. The nanoparticle sample is diluted in phosphate buffered saline (PBS) so that the count rate is approximately 200-400 kcts. The data is presented as a weighted average of the intensity measure. Unless indicated otherwise, all particle size measurements referred to in Tables 4 and 5 are the Z-average particle size of the fully formed nanoparticle, as measured by dynamic light scattering on a Malvern Zetasizer. The nanoparticle sample was diluted in phosphate buffered saline (PBS) so that the count rate is approximately 200-400 kcts.

[3] = Polydispersity index (PDI) of lipid nanoparticle (dynamic light scattering); type: physicochemical
Description: Unless indicated otherwise, all PDIs referred to herein are the PDI of the fully formed nanoparticle, as measured by dynamic light scattering on a Malvern Zetasizer. The nanoparticle sample was diluted in phosphate buffered saline (PBS) so that the count rate was approximately 200-400 kcts. The data is presented in Tables 4 and 5 as a weighted average of the intensity measure.

[4] = tested on: plasma Factor VII enzyme activity; test: Mouse Factor VII dosing / Factor VII Activity Assay; type: in vivo; details: percent knock down of plasma Factor VII activity, CD-1 mice, 48 h; for KD FVII 0.03 mg/kg: single IV dose 0.03 mg/kg; for KD FVII 0.3 mg/kg: single IV dose 0.3 mg/kg
Description: Female CD-1 mice were received from Harlan Labs and maintained on standard lab chow and water ad libitum. The animals weighed approximately 25 grams at time of dosing. Formulated Factor VII siRNA was administered as a single dose intravenously via the lateral tail vein. Approximately 48 hours after injection, the mice were euthanized by CO2 inhalation followed by exsanguination through the vena cava. […] Plasma collected from injected mice was assayed for Factor VII enzyme activity using the Biophen FVII kit from Hyphen Biomedical (catalog number 221304). An assay standard curve was prepared using pooled plasma aliquots from the vehicle control animals. All samples were diluted to fall within the linear range of the standard curve and Factor VII activity relative to control plasma was reported. Lipid nanoparticles comprising lipid compounds of formula (I) and the FVII siRNA duplex sequence listed above were tested in the Factor VII Activity Assay. The results of this assay are given in Table 4 below as a percent knock down of plasma Factor VII enzyme activity at a dose of 0.3 mg/kg and 0.03 mg/kg.

[5] = tested on: respiratory syncytial virus F protein; test: Immunization studies, anti-RSV-F titers; type: in vivo; details: anti-RSV-F titer; BALB/c; course A = days 0 & 21; 4 weeks after second dose; liposomes with 0.1 μg vA317 replicon (naked: 1 μg)
Description: BALB/c were immunized with liposomes comprising DSPC, cholesterol, and various lipids of the invention (or, for comparison, the cationic lipid 1,2-dilinoleyloxy-N,N-dimethyl-3-aminopropane or ‘DLinDMA’). The liposomes encapsulated 0.1 μg of “vA317” self-replicating RNA replicon which encodes respiratory syncytial virus F protein (see WO2012/031043). […] Doses were given either on days 0 & 21 or days 0 & 42. Immune responses were assessed 2 weeks after each dose (2wp1, 2wp2), and in some cases also at 4 weeks after the second dose (4wp2).

[6] = FVII siRNA LNP, Chol/DSPC/S010, molar ratio 45/44/9/2, Z-average
[7] = FVII siRNA LNP, Chol/DSPC/S010, molar ratio 45/44/9/2
[8] = LNP Chol/DSPC/PEG-DMG 45/44/9/2
[9] = PLK1-424 siRNA LNP, Chol/DSPC/S010 45/44/9/2

pKa ([1]; probe TNS, read-out: pKa) | Compound | KD FVII 0.03 mg/kg [4, 8] | further results
5.75 | CCCCCCCC(=O)OCCCCCCCCCCOc1cc(CN(C)C)cc(OCCCCCCCCCCOC(=O)CCCCCCC)c1OCCCCCCCCCCOC(=O)CCCCCCC [Ex. 99, ((5-((dimethylamino)methyl)benzene-1,2,3-triyl)tris(oxy))tris(decane-10,1-diyl)trioctanoate] |  | 
 | CCCCC/C=C\C/C=C\CCCCCCCC(=O)OCCCCOc1cc(CN(C)C)cc(OCCCCOC(=O)CC(CCCCCCCC)CCCCCCCC)c1 [Ex. 109, (9Z,12Z)-4-(3-((dimethylamino)methyl)-5-(4-((3-octylundecanoyl)oxy)butoxy)phenoxy)butyl octadeca-9,12-dienoate] |  | Size (nm) [2, 6]: 91.98 nm; PDI [3, 7]: 0.09; KD FVII 0.03 mg/kg ([4]; LNP Chol/DSPC/S010 45/44/9/2): 68.97%
6.03 | CCCCCCC(CCCCCC)CCCCCC(=O)OCCCCOc1cc(CN(C)C)cc(OCCCCOC(=O)CCCCCC(CCCCCC)CCCCCC)c1 [Ex. 113, ((5-((dimethylamino)methyl)-1,3-phenylene)bis(oxy))bis(butane-4,1-diyl)bis(7-hexyltridecanoate)] | 57.6% | 
5.97 | CCCCCC(CCCCC)CCCCCCCC(=O)OCCCCOc1cc(CN(C)C)cc(OCCCCOC(=O)CCCCCCCC(CCCCC)CCCCC)c1 [Ex. 114, ((5-((dimethylamino)methyl)-1,3-phenylene)bis(oxy))bis(butane-4,1-diyl)bis(9-pentyltetradecanoate)] | 44% | 
5.87 | CCCCCCCC(CCCCCCC)CCCC(=O)OCCCCOc1cc(CN(C)C)cc(OCCCCOC(=O)CCCC(CCCCCCC)CCCCCCC)c1 [Ex. 115, ((5-((dimethylamino)methyl)-1,3-phenylene)bis(oxy))bis(butane-4,1-diyl)bis(5-heptyldodecanoate)] | 78% | 
5.67 | CCCCCCCCC(CCCCCCCC)CC(=O)OCCCCOc1cc(CN(C)C)cc(OCCCCOC(=O)CC(CCCCCCCC)CCCCCCCC)c1 [Ex. 116, ((5-((dimethylamino)methyl)-1,3-phenylene)bis(oxy))bis(butane-4,1-diyl)bis(3-octylundecanoate)] | 29% | 
5.46 | CCCCCCCC(CCCCCCC)CCCC(=O)OCc1cc(COC(=O)CCCC(CCCCCCC)CCCCCCC)cc(CN(C)C)c1 [Ex. 117, (5-((dimethylamino)methyl)-1,3-phenylene)bis(methylene)bis(5-heptyldodecanoate)] |  | 
5.67 | CCCCCCC(CCCCCC)CCCCCC(=O)OCc1cc(COC(=O)CCCCCC(CCCCCC)CCCCCC)cc(CN(C)C)c1 [Ex. 118, (5-((dimethylamino)methyl)-1,3-phenylene)bis(methylene)bis(7-hexyltridecanoate)] | 46.3% | 
5.84 | CCCCCC(CCCCC)CCCCCCCC(=O)OCc1cc(COC(=O)CCCCCCCC(CCCCC)CCCCC)cc(CN(C)C)c1 [Ex. 119, (5-((dimethylamino)methyl)-1,3-phenylene)bis(methylene)bis(9-pentyltetradecanoate)] | 7.8% | 
6.31 | CCCCC/C=C\C/C=C\CCCCCCCC(=O)OCCCCOc1cc(CCCN2CCCCC2)cc(OCCCCOC(=O)CCCCCCC/C=C\C/C=C\CCCCC)c1 [Ex. 120, (9Z,9′Z,12Z,12′Z)-((5-(3-(piperidin-1-yl)propyl)-1,3-phenylene)bis(oxy))bis(butane-4,1-diyl)bis(octadeca-9,12-dienoate)] | 83.7% | 
5.06 | CCCCC/C=C\C/C=C\CCCCCCCC(=O)OCCCCOc1cc(CCCN2CCOCC2)cc(OCCCCOC(=O)CCCCCCC/C=C\C/C=C\CCCCC)c1 [Ex. 122, (9Z,9′Z,12Z,12′Z)-((5-(3-morpholinopropyl)-1,3-phenylene)bis(oxy))bis(butane-4,1-diyl)bis(octadeca-9,12-dienoate)] |  | 
6.08 | CCCCCCCCCC(=O)OCCCCCCCCOc1cc(COC(=O)CCN(C)C)cc(OCCCCCCCCOC(=O)CCCCCCCCC)c1 [Ex. 123] |  | 
7.11 | CCCCCCCCCC(=O)OCCCCCCCCOc1cc(COC(=O)CCCN(C)C)cc(OCCCCCCCCOC(=O)CCCCCCCCC)c1 [Ex. 124, ((5-(((4-(dimethylamino)butanoyl)oxy)methyl)-1,3-phenylene)bis(oxy))bis(octane-8,1-diyl)bis(decanoate)] |  | 
5.75 | CCCCCCCC(=O)OCC(COC(=O)CCCCCCC)OCCCCOc1cc(CN(C)C)cc(OCCCCOC(COC(=O)CCCCCCC)COC(=O)CCCCCCC)c1 [Ex. 125, ((((5-((dimethylamino)methyl)-1,3-phenylene)bis(oxy))bis(butane-4,1-diyl))bis(oxy))bis(propane-3,2,1-triyl)tetraoctanoate] |  | 
 | CCCCCCCC/C=C\CCCCCCCCOc1cc(CN(C)C)cc(OCCCCCCCC/C=C\CCCCCCCC)c1 [Example 1, 1-(3,5-bis((Z)-octadec-9-en-1-yloxy)phenyl)-N,N-dimethylmethanamine] |  | Size (nm) ([2]; FVII siRNA LNP, Chol/DSPC/PEG-DMG, molar ratio 45/44/9/2, Z-average): 98.2 nm; Size (nm) [2, 6]: 87.16 nm; Size (nm) [2, 9]: 74.56 nm; PDI ([3]; FVII siRNA LNP, Chol/DSPC/PEG-DMG, molar ratio 45/44/9/2): 0.05; PDI [3, 7]: 0.124; PDI [3, 9]: 0.152; KD FVII 0.03 mg/kg ([4]; LNP Chol/DSPC/S010 45/44/9/2): 30.8%; KD FVII 0.3 mg/kg [4, 8]: 75.1%
 | CCCCC/C=C\C/C=C\CCCCCCCCOc1cc(COC(=O)CCN(C)C)cc(OCCCCCCCC/C=C\C/C=C\CCCCC)c1 [Example 14, 3,5-bis((9Z,12Z)-octadeca-9,12-dien-1-yloxy)benzyl 3-(dimethylamino)propanoate] |  | Size (nm) [2, 6]: 81.74 nm; PDI [3, 7]: 0.059; 4wp2 pool 1 [5]: 13687 and 21375; 4wp2 pool 2 [5]: 18851 and 21347
 | CCCCC/C=C\C/C=C\CCCCCCCC(=O)OCc1cc(COC(=O)CCCCCCC/C=C\C/C=C\CCCCC)cc(CN(C)C)c1 [Example 33, (9Z,9′Z,12Z,12′Z)-(5-((dimethylamino)methyl)-1,3-phenylene)bis(methylene)bis(octadeca-9,12-dienoate)] |  | pKa ([1]; listed as Ex. 33): 5.75; KD FVII 0.3 mg/kg [4, 8]: 90.4%
5.91 | CCCCC/C=C\CC=CCCCCCCCC(=O)OCCCCOc1cc(CN(C)C)cc(OCCCCOC(=O)CCCCCCCC=CC/C=C\CCCCC)c1C [Example 51, (9Z,9′Z,12Z,12′Z)-((5-((dimethylamino)methyl)-2-methyl-1,3-phenylene)bis(oxy))bis(butane-4,1-diyl)bis(octadeca-9,12-dienoate)] |  | 
